Earlier results in US20230111568A1, “SOLID DISPERSIONS OF RIFAXIMIN FOR THE TREATMENT OF OVERT HEPATIC ENCEPHALOPATHY” (Bausch Health Ireland Limited, priority 2020, published 2023).

Test system: complications of cirrhosis

## CO[C@H]1/C=C/O[C@@]2(C)Oc3c(C)c(O)c4c(O)c(c5c(nc6cc(C)ccn65)c4c3C2=O)NC(=O)/C(C)=C\C=C\[C@H](C)[C@H](O)[C@@H](C)[C@@H](O)[C@@H](C)[C@H](OC(C)=O)[C@@H]1C [rifaximin]
Literature (Conf. Proc. IEEE Eng. Med. Biol. Soc. 2013)
  HE recurrences, hospitalizations, adverse events, survival: protect from HE recurrences with decreased HE-related and all-cause hospitalizations without an increased rate of adverse events (AEs) or decreased survival
Literature (Conf. Proc. IEEE Eng. Med. Biol. Soc.)
  overall rates of infection, antibiotic use and other complications of cirrhosis: reduces or maintains the overall rates of infection, antibiotic use, and other complications of cirrhosis such as ascites
Literature (Journal of Gastroenterology and Hepatology 28(3))
  survival and risk of variceal bleeding, HE, SBP or HRS: independently associated with higher survival and lower risk of developing variceal bleeding, HE, SBP, or HRS
